The record followed here is patent US20040091479A1, “T-cell epitope of the papillomavirus l1 and e7 protein and use thereof in diagnostics and therapy” (priority 2000, published 2004).

Data set [1] relates to HPV18 CVLP-stimulated human T cells. As to the kind of experiment: Restimulating HPV18 CVLP-stimulated T cells with BLCL presenting Q38, Q39, Q46 or Q47 (example 13). It is filed as cell-based. The settings on record: conclusion from FIG. 12 top right. On the procedure:
In analogy with example 6, human T cells (4×10^5) derived from a non-HLA-typed blood donor were stimulated with HPV18L1ΔCDIE71-53DI CVLPs and HPV18L1ΔCDIE71-60DI CVLPs and harvested.
The T cells were then restimulated, at 37° C. and in 100 μl of medium, with in each case 1 μg of peptide Q38, Q39, Q46 or Q47/ml and 10^5 antigen-presenting cells (donor-identical BLCL) in the presence of 10 IU of IL2/ml. Cells which were only incubated with buffer served as the negative control while cells which were incubated with the HPV18 L1 peptide pool or the E7 peptide pool served as positive controls.
(§1) 1 μl of monensin was added after an hour. The cells were then incubated at 37° C. for a further 5 hours. After that, the cells were fixed and permeabilized and stained with α-human CD8/APC, with α-human CD4/PerCP and with α-human IFNγ/FITC. The labeling of the cells was examined in a FACScan Calibur and the results of the measurements were analyzed using Cellquest software.

Data set [2] has as its system CVLP-stimulated T cells (CD4-positive). As to the kind of experiment: Restimulating HPV16 CVLP-stimulated T cells with BLCL presenting HPV16 peptide pools (example 7). It is filed as cell-based, human. The settings on record: peptide common to two reactive HPV16 pools; CD4/IFNγ. The text has this: (§2) In analogy with example 6, human T cells derived from a non-HLA-typed blood donor were stimulated with HPV16L1ΔC*E71-55 CVLPs and harvested.
The 20mer peptides P1 to 51 were assembled into peptide pools A to H and 1 to 7, respectively, in accordance with the following matrix
The T cells were then restimulated as described in example 6, fixed, permeabilized and stained. The analysis also took place as described in example 6.

Data set [3] has as its system peptide-stimulated CD8-positive murine T cells. Kind of data set: Restimulating HPV16 L1 peptide-stimulated murine T cells with peptide-presenting JAWS cells (IFNγ FACScan). In kind it is cell-based, C57BL/6 mice. The settings on record: for proportion of CD8-positive T cells reactive on the basis of IFNγ expression: 1 μg peptide/ml, JAWS cells, T cells of HPV16L1ΔC*E71-55 CVLP-inoculated C57BL/6 mice, FIG. 1; for T cell epitope assignment: conclusion from FIG. 1. The protocol: Murine T cells (4×10^5) derived from HPV16L1ΔC*E71-55 CVLP-inoculated C57BL/6 mice were stimulated for 5 weeks with HPV16 L1 peptide pools at 37° C., with the weekly addition of 1 μg of each individual peptide/ml and 10^5 antigen-presenting cells (irradiated splenocytes), and harvested. The cells were subsequently restimulated, in 100 μl of medium at 37° C., with 1 μg of the peptides given on the X axis in FIG. 1/ml and 10^5 antigen-presenting cells (JAWS) in the presence of 10 IU of IL2/ml. Cells which were only incubated with buffer serve as the negative control.
After an hour, 1 μl of monensin (300 μM) was added. The cells were incubated at 37° C. for a further 5 hours. The cells were then fixed and permeabilized and stained with α-mouse CD8/PE, with α-mouse CD4/cychrome and with α-mouse interferon γ/FITC. The labeling of the cells was analyzed in a FACScan caliber and the results of the measurements were analyzed using Cellquest software.

For data set [4], the system named is peptide-stimulated murine CD8 T cells. As to the kind of experiment: Restimulating HPV18 peptide-stimulated murine T cells with peptide-presenting RMA cells (example 16). In kind it is cell-based. Particulars: for reactive CD8-positive T cells (IFNγ, FACScan): RMA cells as antigen-presenting cells, FIG. 15; for T cell epitope assignment: conclusion from FIG. 15. On the procedure:
In analogy with example 5, murine T cells derived from CVLP-inoculated mice were stimulated with L1 or E7 peptide pools in the added presence of antigen-presenting cells. The cells were then restimulated with the peptides given on the X axis in FIG. 15 (Q3 and Q4 in the upper part of FIG. 15 and L1474E71-8, E72-11 and E71-8 in the lower part of FIG. 15) and also antigen-presenting cells (RMA). Cells which were only incubated with buffer served as the negative control.
The experiment was also analyzed in analogy with example 5, with the reactive CD8-positive cells being determined by means of antibody staining and FACScan.

Data set [5] concerns peptide-stimulated murine CD8-positive T cells. Kind of data set: Restimulating HPV18 peptide-stimulated murine T cells with peptide-presenting LKK cells (IFNγ FACScan). The settings on record: for proportion of CD8-positive T cells reactive on the basis of IFNγ expression: 1 μg peptide/ml, LKK cells, T cells of HPV18 CVLP-inoculated C3H mice, FIG. 3, 4; for T cell epitope assignment: conclusion from FIG. 3, 4. It is filed as cell-based, C3H mice. The protocol:
Murine T cells (4×10^5) derived from C3H mice inoculated with HPV18 L1ΔCDIE71-53DI CVLPs and HPV18 L1ΔCDIE71-6ODI CVLPs were stimulated for 5 weeks with HPV18 L1 or E7 peptide pools at 37° C., with the weekly addition of 1 μg of each individual peptide/ml and 10^5 antigen-presenting cells (irradiated splenocytes), and harvested. The cells were then restimulated, at 37° C. and in 100 μl of medium, with 1 μg of the peptides given on the X axis in FIG. 3/ml and 10^5 antigen-presenting cells (LKK) in the presence of 10 IU of IL2/ml. Cells which were only incubated with buffer served as the negative control.
1 μl of monensin (300 μm) was added after an hour. The cells were incubated at 37° C. for a further 5 hours. The cells were then fixed and permeabilized and stained with α-mouse CD8/PE, with α-mouse CD4/cychrome and with α-mouse interferony/FITC. The labeling of the cells was analyzed in a FACScan Calibur and the results of the measurement were analyzed using Cellquest software.

Data set [6] relates to CVLP-stimulated CD8-positive T cells. Kind of data set: Restimulating HPV16 CVLP-stimulated T cells with BLCL presenting HPV16 peptide pools (example 14). In kind it is cell-based, human. The settings on record: peptide common to two reactive HPV16 pools; CD8/IFNγ. The protocol: as §2
The T cells were then restimulated, at 37° C. and in 100 μl of medium, with the peptide pools from example 7 and 10^5 antigen-presenting cells (donor-identical BLCL) in the presence of 10 IU of IL2/ml. Use was made, in this connection, of quantities of the peptide pools which were such that 1 μg/ml was added in the case of each individual peptide. Cells which were only incubated with buffer served as the negative control, while cells which were incubated with the HPV16 L1 or E7 peptide pool served as positive controls.
as §1

`CC[C@H](C)[C@H](NC(=O)[C@H](C)NC(=O)[C@@H](NC(=O)[C@H](CO)NC(=O)[C@H](CCC(N)=O)NC(=O)[C@@H](NC(=O)[C@H](Cc1ccccc1)NC(=O)[C@H](CCCNC(=N)N)NC(=O)[C@H](Cc1ccc(O)cc1)NC(=O)[C@@H](NC(=O)[C@H](CC(=O)O)NC(=O)[C@@H](NC(=O)[C@H](CC(C)C)NC(=O)[C@H](CO)NC(=O)[C@@H](NC(=O)[C@@H](NC(=O)[C@@H]1CCCN1C(=O)[C@@H]1CCCN1C(=O)[C@@H]1CCCN1C(=O)[C@@H]1CCCN1)[C@@H](C)O)[C@@H](C)O)C(C)C)[C@@H](C)O)C(C)C)C(C)C)C(=O)O` [Q38]: in data set [1], the “T cell epitope assignment (cytotoxic)” value is “contain cytotoxic T cell epitopes”. “ASSNYFPTPSGSMVTSDAQI [P27, HPV16 L1 287-306]”: the “T cell epitope assignment” value in data set [2] was “contain a T helper epitope”. Take “DMVDTGFGAMDFTTLQANKS [P19, HPV16 L1 199-218]”: the “proportion of CD8-positive T cells reactive on the basis of IFNγ expression” value (“proportion” for short) in data set [3] is on record as “brought about a restimulation”. The “T cell epitope assignment” value in data set [3] is on record as “contain H2b-restricted cytotoxic T cell epitopes”; in data set [2] it was “contain a T helper epitope”.

Turning to “FYHAGSSRLLTVGNPYFRVP [Q4, HPV18 L1 34-53]”, in data set [4], the “reactive CD8-positive T cells (IFNγ, FACScan)” value (“reactive CD8-positive T cells” for short) is “brought about a restimulation” and the “T cell epitope assignment” value was “contain an H2b-restricted cytotoxic T cell epitope”. For the molecule “GDSLFFYLRREQMFVRHLFN [P23, HPV16 L1 243-262]”, the “T cell epitope assignment” value in data set [2] is listed as “contain a T helper epitope”. On to “GDSMFFCLRREQLFARHFWN [Q23, HPV18 L1 243-262]”, for which, in data set [5], the “proportion” value is listed as “brought about a restimulation” and the “T cell epitope assignment” value is on record as “contain H2k-restricted cytotoxic T cell epitopes”. Turning to “GMHGPKATL [L1474E71-8, HPV18 L1 474 and E7 1-8]”, in data set [4], the “reactive CD8-positive T cells” value is “brought about a restimulation” and the “T cell epitope assignment” value was “contain an H2b-restricted cytotoxic T cell epitope”. For HGPKATLQDI [E72-11, HPV18 E7 2-11] the same measures were “brought about a restimulation” and “contain an H2b-restricted cytotoxic T cell epitope”.

As to “IFQLCKITLTADVMTYIHSM [P35, HPV16 L1 375-394]”, in data set [3], the “proportion” value is given as “brought about a restimulation” and the “T cell epitope assignment” value is given as “contain H2b-restricted cytotoxic T cell epitopes”.

Turning to “LELINTVIQDGDMVDTGFGA [P18, HPV16 L1 188-207]”, in data set [3], the “proportion” value is recorded as “brought about a restimulation” and the “T cell epitope assignment” value is reported as “contain H2b-restricted cytotoxic T cell epitopes”. Besides, the “T cell epitope assignment” value in data set [2] was “contain a T helper epitope”. As to “LKKYTFWEVNLKEKFSADLD [P41, HPV16 L1 441-460]”, the “T cell epitope assignment” value in data set [6] was “contain a cytotoxic T cell epitope”. For MHGPKATL [E71-8, HPV18 E7 1-8], in data set [4], the “reactive CD8-positive T cells” value is on record as “brought about a restimulation” and the “T cell epitope assignment” value was “contain an H2b-restricted cytotoxic T cell epitope”. “MLDLQPETTDLYCYEQLNDS [P45, HPV16 E7 12-31]”: the “T cell epitope assignment” value in data set [6] is given as “contain a cytotoxic T cell epitope”. Take “MSLWLPSEATVYLPPVPVSK [P1, HPV16 L1 1-20]”: the “T cell epitope assignment” value in data set [6] is reported as “contain a cytotoxic T cell epitope”. Same read-out and setting: then “NNNKILVPKVSGLQYRVFRI [P6, HPV16 L1 56-75]”, with “contain a cytotoxic T cell epitope”.

In the case of “NTDDYVTRTSIFYHAGSSRL [Q3, HPV18 L1 23-42]”, in data set [4], the “reactive CD8-positive T cells” value is listed as “brought about a restimulation” and the “T cell epitope assignment” value was “contain an H2b-restricted cytotoxic T cell epitope”.

For the molecule “PDYLQMSADPYGDSMFFCLR [Q22, HPV18 L1 232-251]”, in data set [5], the “proportion” value is on record as “brought about a restimulation” and the “T cell epitope assignment” value is given as “contain H2k-restricted cytotoxic T cell epitopes”. As for “PLGRKFLLQAGMHGDTPTLH [P43, HPV16 L1 463-473 and E7 1-9]”, the “T cell epitope assignment” value in data set [6] is “contain a cytotoxic T cell epitope”. For the same molecule, in data set [3], the “proportion” value is “brought about a restimulation” and the “T cell epitope assignment” value is given as “contain H2b-restricted cytotoxic T cell epitopes”.

As to “QLCLIGCKPPIGEHWGKGSP [P15, HPV16 L1 155-174]”, in data set [2], the “T cell epitope assignment” value is listed as “contain a T helper epitope”. On the same count and under the same terms, then “QPLGVGISGHPLLNKLDDTE [P11, HPV16 L1 111-130]”, with “contain a T helper epitope”. As for “SSADDLRAFQQLFLNTLSFV [Q51, HPV18 E7 78-97]”, in data set [5], the “proportion” value is “brought about a restimulation” and the “T cell epitope assignment” value is on record as “contain H2k-restricted cytotoxic T cell epitopes”. Consider “STDEYVARTNIYYHAGTSRL [P3, HPV16 L1 23-42]”, for which, in data set [6], the “T cell epitope assignment” value is reported as “contain a cytotoxic T cell epitope”. In data set [3], the “proportion” value is recorded as “brought about a restimulation” and the “T cell epitope assignment” value was “contain H2b-restricted cytotoxic T cell epitopes”. Turning to “VGNPYFRVPAGGGNKQDIPK [Q5, HPV18 L1 45-64]”, in data set [5], the “proportion” value is recorded as “brought about a restimulation” and the “T cell epitope assignment” value was “contain H2k-restricted cytotoxic T cell epitopes”. For “VTVVDTTRSTNNSLCAAIST [P31, HPV16 L1 331-350]”, in data set [2], the “T cell epitope assignment” value was “contain a T helper epitope”. On the same count and under the same terms, then “WACVGVEVGRGQPLGVGISG [P10, HPV16 L1 100-119]”, with “contain a T helper epitope”. For “YCYEQLNDSSEEEDEIDGPA [P46, HPV16 E7 23-42]”, the “T cell epitope assignment” value in data set [6] is “contain a cytotoxic T cell epitope”.

Turning to “YIKGSGSTANLASSNYFPTP [P26, HPV16 L1 276-295]”, in data set [2], the “T cell epitope assignment” value is given as “contain a T helper epitope”.
